The source of these data is ChEMBL document CHEMBL3763012, “From Sphingosine Kinase to Dihydroceramide Desaturase: A Structure-Activity Relationship (SAR) Study of the Enzyme Inhibitory and Anticancer Activity of 4-((4-(4-Chlorophenyl)thiazol-2-yl)amino)phenol (SKI-II)” (J Med Chem, 2016).

Data set [1] deals with T1, Sphingolipid delta(4)-desaturase DES1 (Homo sapiens) (UniProt O15121).
T1 sequence (whole entry): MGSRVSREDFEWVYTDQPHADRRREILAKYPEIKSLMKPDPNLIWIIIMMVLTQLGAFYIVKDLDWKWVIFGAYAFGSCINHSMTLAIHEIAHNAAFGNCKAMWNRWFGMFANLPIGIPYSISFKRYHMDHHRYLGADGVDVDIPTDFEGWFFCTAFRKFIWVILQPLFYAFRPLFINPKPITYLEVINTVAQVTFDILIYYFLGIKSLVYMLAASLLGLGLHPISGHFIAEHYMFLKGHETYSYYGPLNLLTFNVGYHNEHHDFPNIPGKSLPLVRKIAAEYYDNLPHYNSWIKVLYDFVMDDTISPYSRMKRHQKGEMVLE
Description: Irreversible inhibition of Des1 activity in human Jurkat cells treated with parent compound treated with fenretinide using fluorescence labeled DhCer-C6-NBD as substrate by HPLC method. The data set is classed as cell-based. Conditions: TDE = time-dependent effect.

Data set [2] concerns the target T2, Sphingolipid delta(4)-desaturase DES1 (Homo sapiens, UniProt O15121).
T2 sequence (O15121 whole entry): T1 sequence (whole entry)
Put plainly: Drug level in human Jurkat cells assessed as DES1-mediated compound oxidation treated with fenretinide. It is filed as ADME, cell-based.

The target of data set [3] is T1, Sphingolipid delta(4)-desaturase DES1 (Homo sapiens). Put plainly: Inhibition of Des1 activity in human Jurkat cells using fluorescence labeled DhCer-C6-NBD as substrate at 0.1 to 10 uM after 3 hrs by HPLC method. The data set is classed as cell-based.
Data set [4] has as its target T3, Sphingosine kinase 2 (Homo sapiens, UniProt Q9NRA0).
T3 sequence (Q9NRA0 whole entry): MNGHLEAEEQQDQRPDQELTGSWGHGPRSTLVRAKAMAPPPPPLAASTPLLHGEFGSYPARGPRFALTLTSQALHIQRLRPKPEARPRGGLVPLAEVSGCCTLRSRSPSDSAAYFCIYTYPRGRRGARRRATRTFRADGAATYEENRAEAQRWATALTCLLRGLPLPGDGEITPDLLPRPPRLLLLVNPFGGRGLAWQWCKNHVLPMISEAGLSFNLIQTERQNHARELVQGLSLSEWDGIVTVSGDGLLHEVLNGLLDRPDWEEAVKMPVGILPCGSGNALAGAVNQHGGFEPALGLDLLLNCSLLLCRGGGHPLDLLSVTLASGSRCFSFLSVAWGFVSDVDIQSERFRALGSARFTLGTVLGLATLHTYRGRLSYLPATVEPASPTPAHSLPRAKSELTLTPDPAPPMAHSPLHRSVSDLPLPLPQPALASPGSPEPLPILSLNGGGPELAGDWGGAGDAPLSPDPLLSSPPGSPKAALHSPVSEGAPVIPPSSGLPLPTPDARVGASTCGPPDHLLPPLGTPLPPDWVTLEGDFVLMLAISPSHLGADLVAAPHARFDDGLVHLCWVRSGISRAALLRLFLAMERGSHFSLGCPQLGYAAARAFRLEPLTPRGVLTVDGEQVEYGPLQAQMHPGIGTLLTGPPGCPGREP
Put plainly: Inhibition of recombinant SK2 (unknown origin) expressed in Sf9 cells assessed as [33P]S1P formation using D-erythro sphingosine as substrate and gamma[33P]ATP by liquid scintillation counting.

The target of data set [5] is T4, Sphingosine kinase 2 (Homo sapiens) (UniProt Q9NRA0).
T4 sequence (whole entry): T3 sequence (Q9NRA0 whole entry)
Description: Inhibition of recombinant human SK2 assessed as production of [32P] S1P using sphingosine as substrate at 10 uM by TLC method in presence of 100 uM [gamma32P]-ATP relative to control; values are per cent of control.

The nature of data set [6]: Antiproliferative activity against human PC3 cells after 72 hrs by MTS assay. It is filed as functional. Conditions: PC-3, 72 h. In general terms: Formazan colour is commonly taken as a measure of viable cells.
Data set [7] deals with PC-3. Put plainly: Increase in total dhCer level in human PC3 cells at 10 uM after 5 hrs by LC-MS analysis. The data set is classed as functional, cell-based.
The test system of another data set is HEK293. Description: Induction of SK1 degradation in HEK293 cells at 10 uM after 16 hrs by western blotting analysis in presence of proteasome inhibitor MG132. The data set is classed as functional, cell-based. Conditions: Homo sapiens.
Data set [8] has as its system PC-3. Put plainly: Anticlonogenic activity against human PC3 cells at 0.05 to 10 uM after 21 days by soft agar colony forming assay. The data set is classed as functional, cell-based.
In data set [9] the target is T1, Sphingolipid delta(4)-desaturase DES1 (Homo sapiens). Put plainly: Inhibition of Des1 activity in human Jurkat cells using fluorescence labeled DhCer-C6-NBD as substrate at 10 uM after 3 hrs by HPLC method. The data set is classed as cell-based.
The target of data set [10] is T3, Sphingosine kinase 2. Put plainly: Inhibition of human SK2 using D-erythro sphingosine as substrate and gamma[33P]ATP by Lineweaver-Burk plot analysis.
The target of data set [11] is T5, Sphingosine kinase 1 (Homo sapiens, UniProt Q9NYA1). Description: Inhibition of human SK1 using D-erythro sphingosine as substrate and gamma[33P]ATP by Lineweaver-Burk plot analysis.
T5 sequence (Q9NYA1 whole entry): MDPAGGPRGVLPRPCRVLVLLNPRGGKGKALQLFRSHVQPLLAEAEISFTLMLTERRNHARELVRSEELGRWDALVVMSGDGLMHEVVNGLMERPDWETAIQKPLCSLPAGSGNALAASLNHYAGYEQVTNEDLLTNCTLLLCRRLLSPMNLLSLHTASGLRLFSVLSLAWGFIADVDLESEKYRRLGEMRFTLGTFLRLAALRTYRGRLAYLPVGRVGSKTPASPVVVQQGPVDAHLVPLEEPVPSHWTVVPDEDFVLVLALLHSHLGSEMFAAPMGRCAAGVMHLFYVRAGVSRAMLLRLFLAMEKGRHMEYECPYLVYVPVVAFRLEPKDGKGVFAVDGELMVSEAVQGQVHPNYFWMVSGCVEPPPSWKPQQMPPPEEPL
In data set [12] the target is T1, Sphingolipid delta(4)-desaturase DES1 (Homo sapiens). Put plainly: Inhibition of Des1 (unknown origin) at 30 uM.
For data set [13] the target is unchanged. Description: Inhibition of Des1 activity in human Jurkat cells using fluorescence labeled DhCer-C6-NBD as substrate at 1 and 10 uM after 3 hrs by HPLC method. It is filed as cell-based.
The nature of data set [14]: Cytotoxicity against human PC3 cells after 72 hrs by MTT assay. The data set is classed as functional. Conditions: PC-3, 72 h.
The target of data set [15] is T2, Sphingolipid delta(4)-desaturase DES1. Description: Drug metabolism in human Jurkat cells assessed as DES1-mediated (2E,4E,6E,8E)-3,7-dimethyl-N-(4-oxocyclohexa-2,5-dienylidene)-9-(2,6,6-trimethylcyclohex-1-enyl)nona-2,4,6,8-tetraenamide formation. It is filed as ADME, cell-based.
The target in data set [16] is T3, Sphingosine kinase 2. Put plainly: Inhibition of SK2 (unknown origin).
In data set [17] the target is T5, Sphingosine kinase 1. Description: Inhibition of SK1 (unknown origin).
Data set [18] has as its target T5, Sphingosine kinase 1. Description: Inhibition of recombinant His-tagged human SK1 assessed as production of [32P]-S1P using 10 uM sphingosine as substrate by TLC method in presence of 1 mM [gamma32P]-ATP.
The target in data set [19] is T3, Sphingosine kinase 2. Put plainly: Inhibition of recombinant human SK2 assessed as production of [32P] S1P using 10 uM sphingosine as substrate by TLC method in presence of 1 mM [gamma32P]-ATP relative to control.

Activity calls are given as the source filed them. The calls are words filed in the database; no cut-off is given here.

In general, inhibition refers to the change of the read-out against control, counted positive when it falls. Regarding `CC1=C(/C=C/C(C)=C/C=C/C(C)=C/C(=O)N=C2C=CC(=O)C=C2)C(C)(C)CCC1`, in [1], the inhibition result was “tde”. Besides, the Drug metabolism result in data set [2] was “metabolite_detected”.

As to `Oc1ccc(-c2nnc(-c3ccc(Cl)cc3)o2)cc1`, the inhibition entry in [3] is “inactive”.

The Ki is the equilibrium dissociation constant of an inhibitor or competing ligand from its target. As to `CCCCCCCCc1ccc(-c2noc([C@H]3CCCN3C(=N)N)n2)cc1`, on Sphingosine kinase 2 [4], the Ki worked out at 1.3 µM.

For orientation: residual activity means the signal under treatment as a percentage of the control signal. A word on the GI50: it is the concentration giving 50% growth inhibition. For the compound `Oc1ccc(Nc2nc(-c3ccc(Cl)cc3)cs2)cc1`, in data set [5], the residual activity came out at 90%. The compound further showed a GI50 in data set [6] of 11 µM. The inhibition result in [3] was “Active”. The result in the data set on PC-3 [7], in the data set with HEK293 and with PC-3 [8] was Active.

For `Clc1ccc(-c2nnc(Nc3ccc(-c4nn[nH]n4)cc3)o2)cc1`, the residual activity in data set [5] is 70%. For the same compound, the GI50 in data set [6] is 15 µM.

On to `Oc1ccc(Nc2nnc(-c3ccc(Cl)cc3)o2)cc1`, for which the inhibition entry in [3] was “Active”.

`N/C(=N\O)c1ccc(-c2nnc(-c3ccc(Cl)cc3)o2)cc1`: the inhibition entry in [9] is “inactive”.

Take `Cc1ccc(S(=O)(=O)Nc2ccccc2/C=N/c2ccccc2NS(=O)(=O)c2ccc(C)cc2)cc1`: the Ki stood at 6.9 µM on Sphingosine kinase 2 [10] and 27 µM at Sphingosine kinase 1 [11].

With `CCCCCCCc1nc(-c2ccc(CNC(=O)[C@H]3NCC[C@@H]3O)cc2)no1`, the residual activity in [5] was found to be 112%. In [6], this compound came in with a GI50 of over 100 µM. For the same compound, in the data set on HEK293, the outcome was Active.

Take `Cc1cc(CS(=O)(=O)c2ccccc2)cc(OCc2ccc(CN3CCC[C@@H]3CO)cc2)c1`: the residual activity in data set [5] is 45%. For the same compound, the GI50 in data set [6] is 19 µM. For the same compound, the outcome in the data set with HEK293 was Active.

In data set [12], `O=C(NCc1ccncc1)C12CC3CC(C1)CC(c1ccc(Cl)cc1)(C3)C2` had an inhibition of 40%.

Turning to `Oc1ccc(Nc2nnc(-c3ccc(I)cc3)o2)cc1`, the inhibition result in [3] was “Active”.

For `N/C(=N\O)c1ccc(Nc2nnc(-c3ccc(Cl)cc3)o2)cc1`, in data set [13], the inhibition result was “Active”.

`CC1=C(/C=C/C(C)=C/C=C/C(C)=C/C(=O)Nc2ccc(O)cc2)C(C)(C)CCC1` [FENRETINIDE] displayed a GI50 in data set [14] of 2 µM. In [15], the Drug metabolism entry was “metabolite_detected”.

One may read the IC50 as the concentration that gives 50% inhibition. In the case of `OC[C@H]1C[C@H](O)CN1CCCc1ccc(Nc2nc(-c3cccc(C(F)(F)F)c3)cs2)cc1`, the IC50 turned out to be 0.148 µM at Sphingosine kinase 2 [16] and 0.02 µM on Sphingosine kinase 1 [17].

For the compound `Clc1ccc(-c2nnc(NCc3ccncc3)o2)cc1`, the IC50 on Sphingosine kinase 1 [18] is 3.1 µM; on Sphingosine kinase 2 [19] it was 5.5 µM. The residual activity in data set [5] turned out to be 39%. This compound returned a GI50 in [6] of over 100 µM.
